Source: patent US20080305186A1, “Method and Composition for the Treatment of Cardiac Hypertrophy” (BOARD OF REGENTS, THE UNIVERSITY OF TEXAS SYSTEM, priority 2007, published 2008)

Test system: cardiac gene expression
Test: Microarray analysis of cardiac gene expression (GeneChip Mouse Genome 430 2.0)
Assay type: in vivo, mice
Settings: mouse heart, vs isoproterenol only (CH)
Method: Microarray Sample Preparation and Analysis. Animal hearts were rapidly removed, and the atria and right ventricles were cut and immediately plunged into TRIzol Reagent (Life Technologies). Total RNA was isolated following the manufacturer's instructions, purified by phenol-chloroform extraction and then ethanol precipitation, and 20 μg further processed for microarray analysis. Briefly, cDNA synthesis, in vitro transcription, and labeling and fragmentation to produce the oligonucleotide probes were performed as instructed by the GeneChip manufacturer (Affymetrix). The probes were first hybridized to a test array (Affymetrix) and then to the GeneChip Mouse Genome 430 2.0 Array, using the GeneChip Hybridization Oven 640. The chips were washed in a GeneChip Fluidics Station 450 (Affymetrix), and the results were visualized with a GeneChip G7 scanner (Affymetrix). RMA normalization, pairwise comparisons, Student's t test and Benjamini and Hochberg correction were subsequently performed using GeneSifter (VizX Labs, Seattle, Wash.) and Spotfire DecisionSite 8.3 (Spotfire, Inc., Somerville, Mass.).
Effects on Gene Expression Profile. […] One mouse heart was used for each array, and was performed in triplicate, generating a total of 12 arrays. GeneSifter was used to perform RMA normalization, pairwise comparisons of averaged signal intensity values, and Student's t-test with Benjamini and Hochberg correction, and Spotfire was used to perform pairwise comparisons. […] Additionally, genes that were altered between any two N or cardiac hypertrophy samples were removed, as these alterations most likely represented normal variations between mice.

## C[C@H]1c2cccc(O)c2C(=O)C2=C(O)[C@]3(O)C(=O)C(C(N)=O)=C(O)[C@@H](N(C)C)[C@@H]3[C@@H](O)[C@@H]21 [doxycycline]
CH vs normal 3.3
  FC cDNA, AK012898: −2.9 fold
CH vs normal 3.4
  FC Cyclin G2 (Ccng2), NM_007635: −3.1 fold
  FC TRAF2 and K interacting kinase (Tnik), AI117633: −3.4 fold
  FC cDNA, BB098431: −1.8 fold
CH vs normal 3.5
  FC Interleukin-1 receptor-associated kinase 3 (Irak3), AV228493: −2.1 fold
CH vs normal 3.6
  FC CD163 antigen (CD163), NM_053094: −2.1 fold
CH vs normal 3.7
  FC ATP-binding cassette, sub-family A (ABC1), member 1 (Abca1), BB305534: −1.9 fold
  FC Mcf.2 transforming sequee-like (Mcf21), AV293368: −2.3 fold
  FC cDNA, BE956710: −4.4 fold
  FC cDNA, BG276629: −3.1 fold
CH vs normal 3.8
  FC Lipopolysaccharide binding protein (Lbp), NM_008489: −3.4 fold
CH vs normal 3.9
  FC Alcohol dehydrogenase 1, complex (Adh1), BC013477: −3.4 fold
  FC Nuclear factor of kappa light polypeptide gene enhaer in B-cells inhibitor, zeta (Nfkbiz), NM_030612: −2.7 fold
  FC cDNA, BB038506: −2.1 fold
CH vs normal 4.0
  FC Alpha-2-HS-glycoprotein (Ahsg), AI256465: −2.7 fold
CH vs normal 4.1
  FC BCL2/adenovirus E1B interacting protein 1, NIP3 (Bnip3), NM_009760: −2.0 fold
  FC Chitinase 3-like 3 (Chi313), NM_009892: −4.1 fold
  FC Colony stimulating factor 2 receptor, beta 2, low-affinity (granulocyte-macrophage) (Csf2rb2), NM_007781: −2.9 fold
CH vs normal 4.3
  FC NADPH oxidase 4 (Nox4), BC021378: −3.2 fold
CH vs normal 4.4
  FC Calcium-sensitive chloride conductae protein-1 (Clca1), AF047838: −3.6 fold
  FC Connector enhaer of kinase suppressor of Ras 1 (Cnksr1), BB739754: −3.6 fold
CH vs normal 4.5
  FC cDNA, AK008807: −2.7 fold
CH vs normal 4.6
  FC Arrestin domain containing 2 (Arrdc2), AW542672: −3.5 fold
  FC cDNA, BM117672: −3.2 fold
CH vs normal 4.7
  FC Serum amyloid A 3 (Saa3), NM_011315: −4.1 fold
CH vs normal 4.9
  FC Caer related gene-liver 1 (CRG-L1), AF282864: −3.0 fold
  FC Calcium/calmodulin-dependent protein kinase II, beta (Camk2b), BG862223: −4.0 fold
CH vs normal 5.0
  FC Aryl hydrocarbon receptor nuclear translocator-like (Arnt1), BC011080: −5.1 fold
CH vs normal 5.1
  FC Oostatin receptor (Osmr), NM_011019: −2.6 fold
CH vs normal 5.2
  FC cDNA, BE634869: −2.8 fold
CH vs normal 5.3
  FC cDNA, BB795572: −2.3 fold
CH vs normal 5.4
  FC cDNA, AK009753: −3.0 fold
CH vs normal 5.5
  FC cDNA, AI607873: −4.0 fold
CH vs normal 6.0
  FC Cytokine inducible SH2-containing protein 3 (Socs3), BB241535: −3.5 fold
CH vs normal 6.4
  FC Apolipoprotein D (Apod), NM_007470: −3.4 fold
  FC Cytochrome P450, 1b1, benz(a)anthracene inducible (Cyp1b1), NM_009994: −3.2 fold
  FC Membrane-spanning 4-domains, subfamily A, member 6d (Ms4a6d), NM_026835: −2.3 fold
CH vs normal 6.6
  FC mVL30-1 retroelement mRNA sequee, BG066678: −4.2 fold
CH vs normal 6.8
  FC Proteoglycan 4 (megakaryocyte stimulating factor, articular superficial zone protein) (Prg4), NM_021400: −3.3 fold
CH vs normal 7.0
  FC cDNA, BF719154: −3.2 fold
CH vs normal 7.4
  FC CCAATenhaer binding protein (CEBP), delta (Cebpd), BB831146: −4.1 fold
  FC Ca(2+)-sensitive chloride channel 2 (Clca2), AF108501: −5.1 fold
  FC Lysyl oxidase (Lox), M65143: −2.7 fold
CH vs normal 7.8
  FC cDNA, AU018141: −3.2 fold
CH vs normal 8.2
  FC Cytokine inducible SH2-containing protein 3 (Socs3), BB831725: −4.9 fold
CH vs normal 10.6, first BF682848 line
  FC cDNA, BF682848: −5.7 fold
CH vs normal 10.8
  FC C-type (calcium dependent, carbohydrate recognition domain) lectin, superfamily member 8 (Clecsf8), NM_010819: −2.7 fold
CH vs normal 11.1
  FC Lysyl oxidase (Lox), NM_010728: −3.0 fold
CH vs normal 14.6
  FC Cyclin-dependent kinase inhibitor 1A (p21) (Cdkn1a), AK007630: −6.5 fold
CH vs normal 16.3
  FC FK506 binding protein 5 (51 kDa) (Fkbp5), BC015260: −4.5 fold
CH vs normal 21.4, second BF682848 line
  FC cDNA, BF682848: −5.2 fold
CH vs normal 27.7
  FC Lipocalin 2 (Lcn2), X14607: −13.3 fold
CH vs normal 40.5
  FC Serine protease inhibitor 2-2 (Spi2-2) (Serpin3n), NM_009252: −9.7 fold
CH vs normal −1.5
  FC Metallophosphoesterase domain containing 2 (Mpped2), AK012553: 2.0 fold
CH vs normal −1.6
  FC ATP-sensitive potassium channel subunit (Kir6.2) (Kcnj11), U73626: 1.8 fold
  FC CD99 antigen (CD99), AK002762: 1.6 fold
  FC CD248 antigen, endosialin (CD248), NM_054042: 1.7 fold
  FC cDNA, BB627097: 2.4 fold
  FC cDNA, BM229539: 2.1 fold
CH vs normal −1.7
  FC Cytoplasmic polyadenylation element binding protein 3 (Cpeb3), BB281000: 2.6 fold
